Values quoted from earlier work as cited in article PMC12281572.
Where “and” joins values, the source holds several entries; their conditions need not be identical. Equal values may be shown once.

Experiment: FTIR, 4-fluorophenol as donor (the pK_BHX database, per the paper)
Settings: CCl4; 25 C

Compound | pK_BHX (log10 Kf of the 1:1 H-bond complex with 4-fluorophenol, by FTIR)
CN1C2CCCC1CC2 | 2.39 log units
N#Cc1ccc(C(F)(F)F)cc1 | 0.54 log units
CC(=NC(=S)N(C)C)N(C)C | 2.06 log units
COC(C)=O | 1.0 log units
CC(=S)N(C)C | 1.22 log units
CN(C)C1=CC(=O)CC(C)(C)C1 | 2.92 log units
CNc1ccccn1 | 2.11 log units
CCN(CC)C(C)=O | 2.47 log units
COc1ccc(Cl)cc1 | -0.25 log units
FC1C2CC3CC(C2)C(F)C1C3 (centres unmarked) | 0.48 log units
CCOC(C)=O | 1.07 log units
CC(C)(C)N=Cc1ccccc1 | 1.29 log units
CC(=O)c1cccc([N+](=O)[O-])c1 | 0.18 log units
O=C1CCCCO1 | 1.57 log units
C(=Nc1ccccc1)Nc1ccccc1 | 2.13 log units
CN1CCC(Cl)CC1 | 1.7 log units
CC(=Nc1cccc(Cl)c1)N(C)c1ccccc1 | 1.24 log units
CN(C)C(=O)c1ccc(Br)cc1 | 2.07 log units
CC(=O)N1CCOCC1 | 2.16 log units
CC(=O)c1ccc(C)cc1 | 1.24 log units
C1CSC1 | 0.13 log units
CC(=O)c1cccc(C(C)=O)c1 | 0.86 log units
COC(=O)c1ccccc1OC | 1.49 log units
CCN(C)Cc1cccc(C(F)(F)F)c1 | 1.03 log units
CC(C)c1cc(C(C)C)cc(C(C)C)c1 | -0.18 log units

Compound | pK_BHX (log10 Kf of the 1:1 H-bond complex with 4-fluorophenol, by FTIR)
c1ccccc1 | -0.49 log units
CSCc1ccccc1 | -0.02 log units
CC(=NC(=S)SCc1ccccc1)N(C)C | 1.49 log units
Clc1cccnc1 | 1.31 log units
CCOC(=O)CC | 1.08 log units
COC(=O)c1ccccc1 | 0.89 log units
Cc1cccc(C)c1C#N | 0.86 log units
Cc1ccc(CN=CN(C)C)cc1 | 2.36 log units
CN(C)C=NC#N | 2.09 log units
c1ccc(CNCc2ccccc2)cc1 | 1.34 log units
CN1CCN(C)C1=O | 2.46 log units
CC(=Nc1ccccc1)N(C)c1ccccc1 | 1.65 log units
CN1CN(C)C1=O | 2.46 log units
CCN(CC)C(=O)c1ccc(OC)cc1 | 2.35 log units
CN(C)C=NC1CCCCC1 | 2.59 log units
CCOS(=O)OCC | 1.07 log units
COc1ccc(C)cc1 | 0.08 log units
CC(=O)C(C)=O | 0.23 log units
CN(C)C=Nc1ccc(N(C)C)cc1 | 2.32 log units
CNC=O | 1.96 log units
CN(C(=Nc1ccc(Br)cc1)c1ccccc1)c1ccccc1 | 1.11 log units
CC(=O)c1cccnc1 | 1.39 log units and 0.9 log units
FCCCF | -0.27 log units
c1ccc(C2CCCCC2)cc1 | -0.32 log units
CCOC(=O)c1ccc(OC)cc1 | 1.13 log units

Compound | pK_BHX (log10 Kf of the 1:1 H-bond complex with 4-fluorophenol, by FTIR)
CN(C)C(=O)C12CC3CC(CC(C3)C1)C2 | 2.3 log units
CN1C(CC(=O)c2ccccc2)CCCC1CC(O)c1ccccc1 (centres unmarked) | 2.11 log units and 1.94 log units
CC(=Nc1ccc(Br)cc1)N(C)c1ccc(Br)cc1 | 1.19 log units
CC(C)(C)SC(C)(C)C | 0.4 log units
O=[N+]([O-])c1ccc(C23CC4CC(CC(C4)C2)C3)cc1 | 0.42 log units
CC(C)CN=CN(C)C | 2.52 log units
c1ccc2c(c1)cnc1ccccc12 | 1.87 log units
CN(C(=Nc1ccc(Br)cc1)c1ccccc1)c1ccc(Br)cc1 | 0.99 log units
FC1CCCCC1 | 0.09 log units
CSC(C)(C)C | 0.25 log units
Cc1cccnc1 | 2.0 log units
CN(C)Cc1ccccc1 | 1.59 log units
COC(=O)C1CCCCC1 | 1.06 log units
COc1cccc(CN)c1 | 1.94 log units
CCN(C=C[N+](=O)[O-])CC | 1.58 log units
IC1CCCCC1 | -0.32 log units
Cc1ccccn1 | 2.03 log units
O=C1c2ccccc2Cc2ccccc21 | 1.25 log units
C=CCN(CC=C)CC=C | 1.34 log units
CN(C)C=NCc1ccc(Cl)cc1 | 2.12 log units
CC(C)Cl | -0.3 log units
CSc1ccccc1 | -0.32 log units and -0.48 log units
Oc1ccc(F)cc1 | -0.12 log units
c1ccc2nc3ccccc3cc2c1 | 1.95 log units
CN(C)Cc1cccc(C(F)(F)F)c1 | 1.16 log units

Compound | pK_BHX (log10 Kf of the 1:1 H-bond complex with 4-fluorophenol, by FTIR)
Cn1cccc1 | 0.23 log units
CCCCCCCCCCCCCCCCN | 2.26 log units
Fc1ccc(N=C(Nc2ccccc2)c2ccccc2)cc1 | 1.25 log units
CNCCC#N | 1.37 log units
CCN(CC)c1ccc(N=O)cc1 | 1.33 log units
CCSC(=O)OC | 0.73 log units
CC1(C)CCCC(C)(C)N1 | 1.88 log units
C1COCCOCCOCCO1 | 1.13 log units
NC1CC1 | 1.72 log units
CN1CN(C)CN(C)C1 | 1.58 log units
COc1ccc(C(=O)N(c2ccccc2)c2ccccc2)cc1 | 1.67 log units
COc1ccccc1C#N | 1.06 log units
N#Cc1ccc(F)cc1 | 0.72 log units
CC(C)(C)c1cc(C(C)(C)C)cc(C(C)(C)C)c1 | -0.23 log units
COc1ccc(C(=S)N(C)C)cc1 | 1.16 log units
c1ccc2ncccc2c1 | 1.89 log units
CN=C(c1ccc([N+](=O)[O-])cc1)N(C)C | 1.99 log units
NCCCCN | 2.21 log units
CC(C)(C)c1cccc(C(C)(C)C)n1 | -0.54 log units
C1CSCCS1 | -0.14 log units
FC(F)(F)c1cccc(C2CCCN2)c1 (centres unmarked) | 1.38 log units
CCOC(=O)N(C)C | 1.83 log units
CCCN | 2.2 log units
